According to patent US7206699B2, “Methods for measuring therapy resistance” (Virco N.V., priority 2000, dated 2007):
Like-named read-outs stand apart in the source and are kept apart here.

System: HIV-1
Conditions: for Geometric Mean Phenotype: fold change in IC50 vs wild type; for Average Phenotype (log): log fold change
[1] = RT codon 41 ANY, 184 ANY, 215 ANY, N 13255
[2] = RT codon 41 L, 184 WT, 215 WT, N 54
[3] = RT codon 41 WT, 184 V/I, 215 F/Y, N 673
[4] = RT codon 41 WT, 184 V/I, 215 WT, N 2172
[5] = RT codon 41 WT, 184 WT, 215 WT, N 4826

Text: The whole process can be divided into three phases: molecular biology, transfection and susceptibility testing.
• Viral RNA fragments extracted from patient's blood sample • Complementary DNA (cDNA) of the gag-PR-RT sequence, through to codon 400 formed via reverse transcription • Gag-PT-RT sequence multiplied using two rounds of PCR • Purification of the DNA fragments • Creation of laboratory proviral clone with gag-PR-RT sequence deleted • Insertion of the clone into bacterial plasmids for reproduction of large quantities. Transfection This is the process by which viral genes are transferred to a cell. • 1. The gag-PR-RT sequences from the patient sample and the plasmid fragments are mixed with CD4+, MT4 cells. • 2. Electroporation takes place: the cells are subject to a short (milliseconds), but strong current in a cuvette producing transient openings in the cell membrane, through which both the gag-PR-RT DNA fragment and the plasmid fragment enter. • 3. In a relatively small proportion of the cells, both fragments will meet up and, probably supported by a cellular enzyme, recombine to form a complete HIV-1 genome that can now be converted into infectious virus particles. • 4. The recombinant virus is then grown in this cell culture for approximately 8 days, until the cytopathogenic effect or CPE reaches a sufficient level. • 5. The medium is then centrifuged to separate out the cells and the supernatant contains large quantities of recombinant virus—the virus stock harvest. • 6. The virus is then titrated to achieve a known concentration. Susceptibility Testing
Different concentrations of the antiviral agents are placed in the 384 microwells of a microtiter test plate. Several wells are used for each concentration and the mean results used to increase reliability. • 2. A set dilution of the recombinant virus stock or wild type control virus is added to each microwell. • 3. A set dilution of MT4 cells containing a fluorescent reporter gene system is also added to each microwell. • 4. The plate is incubated for 3 days during which time the recombinant virus will replicate in the MT4 cells unless inhibited by the antiviral drug. Replication triggers the reporter gene, which produces proteins which fluoresce. • 5. The amount of viral replication at each concentration of drug is measured by computerized spectrophotometry, relative to the wild type virus controls. • 6. The susceptibility of the virus to each drug is expressed as a fold change in IC50 relative to wild type virus. • 7.
Plasma samples were obtained from patients and submitted to laboratories for routine assessment of drug susceptibility.

Cc1cn([C@H]2C[C@H](N=[N+]=[N-])[C@@H](CO)O2)c(=O)[nH]c1=O [AZT, zidovudine]
Geometric Mean Phenotype [1]: 3.9 fold | Geometric Mean Phenotype [2]: 1.7 fold | Geometric Mean Phenotype [3]: 6.2 fold | Geometric Mean Phenotype [4]: 1.3 fold | Geometric Mean Phenotype [5]: 1.3 fold | mean fold resistance, increase (genetic clusters with multiple mutations conferring AZT resistance, FIG. 8): ~100 fold | effect of including the 184V mutation together with AZT resistance mutations (genetic clusters with vs without 184V/I, FIG. 8): substantial reduction in the predicted magnitude of AZT resistance | Average Phenotype (log) [1]: 0.59 | Average Phenotype (log) [2]: 0.24 | Average Phenotype (log) [3]: 0.79 | Average Phenotype (log) [4]: 0.10 | Average Phenotype (log) [5]: 0.12 | mean fold resistance of genetic cluster, in words (virus harbouring the 184V mutation, FIG. 8): slightly reduced level of susceptibility
